Measured values published in EP4782453A1 (Beyang Therapeutics Co., Ltd., priority 2023, dated 2025).
pIC50: −log10 of the molar value. Like-named read-outs stand apart in the source and are kept apart here.

What was measured:
Menin-MLL = target: T1, Menin-MLL (Homo sapiens, UniProt O00255); assay: Inhibitory activity against Menin-MLL binding (fluorescence polarization); conditions: 150 nM His-Menin, 15 nM FITC-MLL, 25°C for 60 min
T1 construct: His-Menin (M1-L615 end); purchased BIORTUS BP9210
T1 sequence (O00255 1-615 isoform O00255-1): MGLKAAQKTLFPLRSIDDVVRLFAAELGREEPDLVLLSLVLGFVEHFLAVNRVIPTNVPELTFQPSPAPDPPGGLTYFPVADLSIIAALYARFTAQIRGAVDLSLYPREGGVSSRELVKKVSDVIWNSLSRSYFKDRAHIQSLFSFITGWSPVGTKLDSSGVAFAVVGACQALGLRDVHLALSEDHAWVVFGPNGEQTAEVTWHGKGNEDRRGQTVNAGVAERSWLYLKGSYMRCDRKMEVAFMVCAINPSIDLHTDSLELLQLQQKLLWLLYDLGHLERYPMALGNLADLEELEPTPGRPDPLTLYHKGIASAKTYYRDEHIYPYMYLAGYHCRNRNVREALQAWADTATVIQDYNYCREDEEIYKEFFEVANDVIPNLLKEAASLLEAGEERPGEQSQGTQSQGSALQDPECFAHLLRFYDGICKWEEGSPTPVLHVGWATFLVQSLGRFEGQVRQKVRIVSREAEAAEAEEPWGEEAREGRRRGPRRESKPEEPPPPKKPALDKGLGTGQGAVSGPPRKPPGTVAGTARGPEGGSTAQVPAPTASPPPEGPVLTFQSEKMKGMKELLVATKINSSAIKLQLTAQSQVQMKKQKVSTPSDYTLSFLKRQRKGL
Summary of the method: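 Fluorescence polarization competition: compound and 150 nM His-tagged menin (residues M1-L615) sit 15 min at 25 °C in pH 7.5 HEPES buffer with NaCl, DTT and BSA; 15 nM FITC-labelled MLL peptide then binds for 60 min. IC50 fitted sigmoidally from mP values, duplicate wells.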

[1] = test system: MV-4-11 (carrying MLL-AF4); assay: Inhibition of proliferation of human tumor cells (Alamar Blue, 7 days), MV-4-11; type: cell-based; conditions: Homo sapiens, MV4-11, 168 h, MV-4-11 cells (carrying MLL-AF4), method calls the value GI50
Summary of the method: (§1)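 GI50 from Alamar Blue fluorescence after 7-day compound exposure, duplicate wells, using Day-0 and Day-7 0.1% DMSO wells as low and high controls. MV-4-11 in IMDM/10% FBS and MOLM-13 in RPMI-1640/20% FBS at 4,000 cells/well; KG-1a in IMDM/20% FBS at 3,000 cells/well.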

[2] = test system: MOLM-13 (carrying MLL-AF9); assay: Inhibition of proliferation of human tumor cells (Alamar Blue, 7 days), MOLM-13; type: cell-based; conditions: Homo sapiens, MOLM-13 cells (carrying MLL-AF9), method calls the value GI50
Summary of the method: as §1

[3] = fluorescence polarization, read-out: Menin-MLL IC50
[4] = Menin-MLL IC50, fluorescence polarization

With `Cc1nc(F)c2c(-c3ccc(F)cc3C(=O)N3[C@H](C)COC[C@H]3C)cc(C3CN(CC4CCN(CC5(O)CCOCC5)CC4)C3)cn12` [Example 211, 4-[(4-{[3-(8-{2-[(3R,5R)-3,5-dimethylmorpholin-4-carbonyl]-4-fluorophenyl}-1-fluoro-3-methylimidazo[1,5-a]pyridin-6-yl)azacyclobutan-1-yl]methyl}piperidin-1-yl)methyl]oxacyclohexan-4-ol] the pIC50 (Menin-MLL; [3]) was 8.52, the pIC50 [1] was 8.66 and the pIC50 ([2]; 168 h) was 8.24.

For `CO[C@@H]1CN(CCC[C@H](C(C)C)N2CC(c3cc(-c4ccc(F)cc4C(=O)N4CCOC[C@H]4C)c4c(F)nc(C)n4c3)C2)C[C@H]1O` (relative stereo) [Example 291, (3r,4r)-1-[(4R)-4-[3-(1-fluoro-8-{4-fluoro-2-[(3R)-3-methylmorpholin-4-carbonyl]phenyl}-3-methylimidazo[1,5-a]pyridin-6-yl)azacyclobutan-1-yl]-5-methylhexyl]-4-methoxypyrrolidin-3-ol], the pIC50 (Menin-MLL; [3]) was 8.52, the pIC50 [1] was 8.80 and the pIC50 ([2]; 168 h) was 8.15.

With `Cc1nc(F)c2c(-c3ccc(F)cc3C(=O)N3[C@H](C)COC[C@H]3C)cc(C3CN(C[C@H]4CC[C@H](n5cncn5)CC4)C3)cn12` [Example 213, (3R,5R)-4-{5-fluoro-2-[1-fluoro-3-methyl-6-(1-{[(1r,4r)-4-(1H-1,2,4-triazol-1-yl)cyclohexyl]methyl}azacyclobutan-3-yl)imidazo[1,5-a]pyridin-8yl]benzoyl}-3,5-dimethylmorpholine] the pIC50 (Menin-MLL; [4]) was 7.96, the pIC50 [1] was 7.89 and the pIC50 ([2]; MOLM-13, 168 h) was 7.54.

`COCC(=O)N1CCC(CN2CC(c3cc(-c4ccc(F)cc4C(=O)N4[C@H](C)COC[C@H]4C)c4c(F)nc(C)n4c3)C2)CC1` [Example 224] gave a pIC50 (Menin-MLL; [3]) of 7.59, a pIC50 [1] of 7.85 and a pIC50 ([2]; 168 h) of 7.44.

`CCC(=O)N1CCC([C@H](C)N2CC(c3cc(-c4ccc(F)cc4C(=O)N4CCOC[C@H]4C)c4c(F)nc(C)n4c3)C2)CC1` [Example 295] showed a pIC50 (Menin-MLL; [3]) of 8.30, a pIC50 [1] of 7.72 and a pIC50 ([2]; 168 h) of 7.33.

For `COC(=O)N1CCC(CN2CC(c3cc(-c4ccc(F)cc4C(=O)N4CCOC[C@H]4C)c4c(F)nc(C)n4c3)C2)CC1` [Example 259], the pIC50 (Menin-MLL; [3]) was 7.23, the pIC50 [1] was 7.26 and the pIC50 ([2]; 168 h) was 6.96.

`Cc1nc(F)c2c(-c3ccc(F)cc3C(=O)N(CC(F)F)C(C)C)cc(C3CN(C(=O)[C@@H]4CCCCN4)C3)cn12` [Example 131, N-(2,2-difluoroethyl)-5-fluoro-2-(1-fluoro-3-methyl-6-{1-[(2S)-piperidin-2-carbonyl]azacyclobutan-3-yl}imidazo[1,5-a]pyridin-8-yl)-N-(isopropyl)benzamide] showed a pIC50 (Menin-MLL; [3]) of 7.81, a pIC50 [1] of 7.30 and a pIC50 ([2]; 168 h) of 7.40.

Molecule `CCS(=O)(=O)N[C@H]1CC[C@H](CN2CC(c3cc(-c4ccc(F)cc4C(=O)N4CCC[C@H]4C)c4c(F)nc(C)n4c3)C2)CC1` [Example 187, N-[(1r,4r)-4-{[3-(1-fluoro-8-{4-fluoro-2-[(2R)-2-methylpyrrolidin-1-carbonyl]phenyl}-3-methylimidazo[1,5-a]pyridin-6-yl)azacyclobutan-1-yl]methyl}cyclohexyl]ethan-1-sulfonamide] has a pIC50 (Menin-MLL; [4]) of 7.78, a pIC50 [1] of 7.82 and a pIC50 ([2]; MOLM-13, 168 h) of 7.44.

`Cc1nc(F)c2c(-c3ccc(F)cc3C(=O)N3CCOC[C@H]3C)cc(C3CN([C@@H](C)C4CCOCC4)C3)cn12` [Example 238-2, (3R)-4-[5-fluoro-2-(1-fluoro-3-methyl-6-{1-[(1S)-1-(oxacyclohexan-4-yl)ethyl]azacyclobutan-3-yl}imidazo[1,5-a]pyridin-8-yl)benzoyl]-3-methylmorpholine] showed a pIC50 (Menin-MLL; [3]) of 7.74, a pIC50 [1] of 7.96 and a pIC50 ([2]; 168 h) of 7.57.

In the case of `Cc1nc(F)c2c(-c3ccc(F)cc3C(=O)N3CCOC[C@H]3C)cc(C3CN(C[C@H]4CC[C@@H](n5cncn5)CC4)C3)cn12` [Example 267, (3R)-4-{5-fluoro-2-[1-fluoro-3-methyl-6-(1-{[(1s,4s)-4-(1H-1,2,4-triazol-1-yl)cyclohexyl]methyl}azacyclobutan-3-yl)imidazo[1,5-a]pyridin-8yl]benzoyl}-3-methylmorpholine], the pIC50 (Menin-MLL; [3]) was 7.92, the pIC50 [1] was 7.70 and the pIC50 ([2]; 168 h) was 7.35.

Molecule `Cc1nc(F)c2c(-c3ccc(F)cc3C(=O)N3CCOC[C@H]3C)cc(C3CN(CC4CCN(C(=O)CC#N)CC4)C3)cn12` [Example 249] has a pIC50 (Menin-MLL; [3]) of 7.62, a pIC50 [1] of 7.30 and a pIC50 ([2]; 168 h) of 7.36.

For `CCNC(=O)N1CCC(CN2CC(c3cc(-c4ccc(F)cc4C(=O)N(CC)C(C)C)c4cnc(C)n4c3)C2)CC1` [Example 290], the pIC50 (Menin-MLL; [3]) was 8.40, the pIC50 [1] was 8.28 and the pIC50 ([2]; 168 h) was 7.62.

`Cc1nc(F)c2c(-c3ccc(F)cc3C(=O)N3[C@H](C)COC[C@H]3C)cc(C3CN(CC4CCN(C(=O)C5CCOCC5)CC4)C3)cn12` [Example 221] was tested, and the pIC50 (Menin-MLL; [3]) was 7.57, the pIC50 [1] was 7.92 and the pIC50 ([2]; 168 h) was 7.57.

In the case of `Cc1nc(F)c2c(-c3ccc(F)cc3C(=O)N3CCOC[C@H]3C)cc(C3CN(CC4CCN(C(=O)C5(O)CC5)CC4)C3)cn12` [Example 248], the pIC50 (Menin-MLL; [3]) was 7.52, the pIC50 [1] was 7.47 and the pIC50 ([2]; 168 h) was 7.20.

Molecule `Cc1nc(F)c2c(-c3ccc(F)cc3C(=O)N3CCOC[C@H]3C)cc(C3CN(CC4CCN(c5cncnc5)CC4)C3)cn12` [Example 266, (3R)-4-{5-fluoro-2-[1-fluoro-3-methyl-6-(1-{[1-(pyrimidin-5-yl)piperidin-4-yl]methyl}azacyclobutan-3-yl)imidazo[1,5-a]pyridin-8yl]benzoyl}-3-methylmorpholine] has a pIC50 (Menin-MLL; [3]) of 7.89, a pIC50 [1] of 7.89 and a pIC50 ([2]; 168 h) of 7.48.

`Cc1ncc2c(-c3ccc(F)cc3C(=O)N3CCOC[C@H]3C)cc(C3CN(CC4CCOCC4)C3)cn12` [Example 243, (3R)-4-[5-fluoro-2-(3-methyl-6-{1-[(oxacyclohexan-4-yl)methyl]azacyclobutan-3-yl}imidazo[1,5-a]pyridin-8-yl)benzoyl]-3-methylmorpholine] showed a pIC50 (Menin-MLL; [3]) of 7.50, a pIC50 [1] of 7.38 and a pIC50 ([2]; 168 h) of 6.70.

Molecule `Cc1nc(F)c2c(-c3ccc(F)cc3C(=O)N3CCOC[C@H]3C)cc(C3CN(CC4CCOCC4)C3)cn12` [Example 232, (3R)-4-[5-fluoro-2-(1-fluoro-3-methyl-6-{1-[(oxacyclohexan-4-yl)methyl]azacyclobutan-3-yl}imidazo[1,5-a]pyridin-8-yl)benzoyl]-3-methylmorpholine] has a pIC50 (Menin-MLL; [3]) of 7.76, a pIC50 [1] of 7.77 and a pIC50 ([2]; 168 h) of 7.47.

Work on `Cc1cncc2c(-c3ccc(F)cc3C(=O)N3[C@H](C)COC[C@H]3C)cc(CC3CN(CC4CCOCC4)C3)n12` [Example 230] yielded a pIC50 (Menin-MLL; [3]) of 8.70, a pIC50 [1] of 9.00 and a pIC50 ([2]; MOLM-13, 168 h) of 8.54.

Work on `Cc1nc(F)c2c(-c3ccc(F)cc3C(=O)N3[C@H](C)COC[C@H]3C)cc(C3CN([C@@H](C)C4CCOCC4)C3)cn12` [Example 209-2, (3R,5R)-4-[5-fluoro-2-(1-fluoro-3-methyl-6-{1-[(1S)-1-(oxacyclohexan-4-yl)ethyl]azacyclobutan-3-yl}imidazo[1,5-a]pyridin-8-yl)benzoyl]-3,5-dimethylmorpholine] yielded a pIC50 (Menin-MLL; [3]) of 8.35, a pIC50 [1] of 8.70 and a pIC50 ([2]; 168 h) of 8.30.

`Cc1nc(F)c2c(-c3ccc(F)cc3C(=O)N3CCOC[C@H]3C)cc(C3CN(CC4CCN(C(=O)N5CC(F)(F)C5)CC4)C3)cn12` [Example 258] was tested, and the pIC50 (Menin-MLL; [3]) was 7.30, the pIC50 [1] was 7.44 and the pIC50 ([2]; 168 h) was 7.31.
